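How tested: cells in 96-well plates exposed to compound for 48 hours at five concentrations. GI50: concentration for 50% inhibition of growth. TGI is the concentration that stops growth completely.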
What was measured:
Test in all cases: growth of human tumour cells (NCI), 48 h
HOP-18 NSCLC = system: HOP-18 NSCLC
786-0 renal = system: 786-0 renal
KM20L2 colon = system: KM20L2 colon
DLD-1 colon = system: DLD-1 colon
DMS 273 small cell lung = system: DMS 273 small cell lung
NCI-H23 lung = system: NCI-H23 lung
SK-MEL-28 melanoma = system: SK-MEL-28 melanoma
DMS 114 small cell lung = system: DMS 114 small cell lung
MOLT-4 leukemia = system: MOLT-4 leukemia
SK-MEL-2 melanoma = system: SK-MEL-2 melanoma
SNB-78 CNS = system: SNB-78 CNS
M19-MEL melanoma = system: M19-MEL melanoma
RXF 393 renal = system: RXF 393 renal
MDA-MB-231 breast = system: MDA-MB-231 breast
BT-549 breast = system: BT-549 breast

| Structure (SMILES) | TGI (HOP-18 NSCLC) | TGI (786-0 renal) | TGI (KM20L2 colon) | TGI (DLD-1 colon) | TGI (DMS 273 small cell lung) | TGI (NCI-H23 lung) | TGI (SK-MEL-28 melanoma) | TGI (DMS 114 small cell lung) | TGI (MOLT-4 leukemia) | TGI (SK-MEL-2 melanoma) | TGI (SNB-78 CNS) | TGI (M19-MEL melanoma) | TGI (RXF 393 renal) | TGI (MDA-MB-231 breast) | TGI (BT-549 breast) | GI50 (MDA-MB-231 breast) | GI50 (NCI-H23 lung) | GI50 (SK-MEL-28 melanoma) | GI50 (MOLT-4 leukemia) | GI50 (BT-549 breast) |
| --- | --- | --- | --- | --- | --- | --- | --- | --- | --- | --- | --- | --- | --- | --- | --- | --- | --- | --- | --- | --- |
| Nc1nc(N)c(N=Nc2ccccc2)c(=O)[nH]1 | > 100 µM | > 100 µM | > 100 µM | > 100 µM | > 100 µM | 93 µM | 87.7 µM | 71.2 µM | > 100 µM | > 100 µM | 71.4 µM | > 100 µM | – | – | – | – | – | – | – | – |
| CC=C/C=C/[C@@H]1O[C@](O)([C@H](CC)C(=O)NC/C=C/C=C(\C)[C@@H](OC)[C@@H](C)[C@@H]2O[C@H](/C=C/C=C/C=C(\C)C(=O)c3c(O)cc[nH]c3=O)[C@H](O)[C@@H]2O)[C@H](O)[C@H](O)C1(C)C | – | – | – | – | – | > 100 µM | > 100 µM | – | > 100 µM | > 100 µM | – | – | – | – | – | – | – | – | – | – |
| OCC1NC(CO)C(O)C1O (stereo not drawn) | – | – | – | – | – | > 100 µM | > 100 µM | – | > 100 µM | > 100 µM | – | – | > 100 µM | > 100 µM | > 100 µM | – | – | – | – | – |
| COc1ccc(/C=C/c2cc(O)cc(OC3OC(CO)C(O)C(O)C3O)c2)cc1O (stereo not drawn) | – | > 100 µM | – | – | – | – | > 100 µM | – | > 100 µM | > 100 µM | – | – | > 100 µM | > 100 µM | > 100 µM | – | – | – | – | – |
| CCOP(=O)(OCC)C(Cc1c[nH]c2ccccc12)C(=O)O (stereo not drawn) | – | – | – | – | – | > 100 µM | > 100 µM | – | > 100 µM | > 100 µM | – | – | – | > 100 µM | – | – | – | – | – | – |
| COc1ccc(CCn2ccc(C)n2)c(OC)c1 | – | – | – | – | – | > 100 µM | > 100 µM | – | > 100 µM | – | – | – | > 100 µM | > 100 µM | > 100 µM | – | – | – | – | – |
| O=C(Nc1ccc(C(F)(F)F)cc1[N+](=O)[O-])C(=O)Nn1c(=S)[nH]c2ccccc2c1=O | > 100 µM | – | > 100 µM | > 100 µM | > 100 µM | > 100 µM | > 100 µM | > 100 µM | > 100 µM | > 100 µM | > 100 µM | > 100 µM | > 100 µM | – | – | – | – | – | – | – |
| COc1ncnc2c(Cl)c(C(O)c3ccccc3)c(Cl)cc12 (stereo not drawn) | – | – | – | – | – | > 100 µM | > 100 µM | – | > 100 µM | > 100 µM | – | – | 35.5 µM | 58.6 µM | 66.1 µM | – | – | – | – | – |
| CC(=O)OC/C=C\Cn1ncc(=O)[nH]c1=O | – | – | – | – | – | 28.9 µM | 50.2 µM | – | 44 µM | 40.2 µM | – | – | 37.1 µM | 68 µM | – | – | – | – | – | – |
| Fc1ccc(C2CC(c3cccc(Nc4ccncc4)c3)=NN2c2ccccc2)cc1 (stereo not drawn) | – | – | – | – | – | 3.33 µM | 3.35 µM | – | 5.81 µM | – | – | – | – | 2.95 µM | 3.46 µM | 1.57 µM | 1.75 µM | 1.76 µM | 2.47 µM | 1.68 µM |
| Nc1ccc(C2(c3ccc(N)cc3)C3CC4CC(C3)CC2C4)cc1 | – | – | – | – | – | 28.7 µM | > 100 µM | – | 28.2 µM | 34.8 µM | – | – | 17.8 µM | 37.5 µM | 25.2 µM | – | – | – | – | – |

From PubChem BioAssay (NCI)
